# In publication PMC8032764 (Scientific Reports, 2021):
# Like-named read-outs stand apart in the source and are kept apart here.
# How the values were obtained:
# human α4β3γ2 = target: T1, human α4β3γ2 (Homo sapiens, UniProt P18507+P48169); test: [3H]-Ro 15-4513 competition binding; conditions: at > 3 µM; data not shown
# T1 construct: expressed in transfected cells; host or cells: HEK293-EBNA, transient
# Procedure: (§1) HEK293-EBNA cells adapted to grow in suspension were transiently transfected with the plasmids containing the desired GABAA receptor subunit cDNAs at α, β, γ, 1:1:2 ratio using XtremeGENE Q2 (Cat. No. 03045595001, Roche Applied Science, RAS, Rotkreuz, Switzerland) as previously described. GABAA α1β2γ2, α2β3γ2, α3β3γ2, α4β3γ2, α5β3γ2 and α6β3γ2 receptor subtypes were expressed in this system. 48 h post transfection, the cells were harvested and washed three times with cold PBS and frozen at − 80 °C.
# (§2) IC50 values were derived from the inhibition curve and Ki values were calculated as described below.
# human α6β3γ2 = target: T2, human α6β3γ2 (Homo sapiens, UniProt P18507+Q16445); test: [3H]-Ro 15-4513 competition binding; conditions: at > 3 µM; data not shown
# T2 construct: expressed in transfected cells; host or cells: HEK293-EBNA, transient
# Procedure: as §1, §2
# [1] = tested on: Adrenergic α1 (non-selective); test: Cerep binding; conditions: 10 μM; [3H]prazosin; rat cerebral cortex
# Dopamine D1 = tested on: T3, Dopamine D1; test: Cerep binding; set-up: species or system human; conditions: 10 μM; [3H]SCH 23390; hum. recomb. (CHO)
# T3 construct: host or cells: CHO
# Dopamine D4.4 = tested on: T4, Dopamine D4.4; test: Cerep binding; set-up: species or system human; conditions: 10 μM; [3H]spiperone; hum. recomb. (CHO)
# T4 construct: host or cells: CHO
# Purinergic P2X = test: Cerep binding; conditions: 10 μM; [3H]α,β-MeATP; rat urinary bladder
# Serotonin 5-HT1A = tested on: T5, Serotonin 5-HT1A; test: Cerep binding; set-up: species or system human; conditions: 10 μM; [3H]8-OH-DPAT; hum. recomb. (HEK-293)
# T5 construct: purchased Eurofins Cerep
# Serotonin 5-HT6 = tested on: T6, Serotonin 5-HT6; test: Cerep binding; set-up: species or system human; conditions: 10 μM; [3H]LSD; hum. recomb. (CHO)
# T6 construct: purchased Eurofins Cerep
# Sigma (non-selective) = test: Cerep binding; conditions: 10 μM; [3H]DTG; rat cerebral cortex
# Bradykinin B2 = tested on: T7, Bradykinin B2; test: Cerep binding; set-up: species or system human; conditions: 10 μM; [3H]bradykinin; hum. recomb. (CHO)
# T7 construct: purchased Eurofins Cerep
# Endothelin ETB = tested on: T8, Endothelin ETB; test: Cerep binding; set-up: species or system human; conditions: 10 μM; [125I]endothelin-1; hum. recomb. (CHO)
# T8 construct: purchased Eurofins Cerep
# Galanin 1 = tested on: T9, Galanin 1; test: Cerep binding; set-up: species or system human; conditions: 10 μM; [125I]galanin; hum. recomb. (HEK-293)
# T9 construct: purchased Eurofins Cerep
# Melanocortin MC4 = tested on: T10, Melanocortin MC4; test: Cerep binding; set-up: species or system human; conditions: 10 μM; [125I]NDP-α-MSH; hum. recomb. (CHO)
# T10 construct: purchased Eurofins Cerep
# Neurokinin NK1 = tested on: T11, Neurokinin NK1; test: Cerep binding; set-up: species or system human; conditions: 10 μM; [125I]BH-SP; hum., U-373MG cells
# T11 construct: purchased Eurofins Cerep
# Neurokinin NK2 = tested on: T12, Neurokinin NK2; test: Cerep binding; set-up: species or system human; conditions: 10 μM; [125I]NKA; hum. recomb. (CHO)
# T12 construct: purchased Eurofins Cerep
# [2] = tested on: Ca2+ channel, L-type (phenylalkylamine site); test: Cerep binding; conditions: 10 μM; [3H](-)D 888; rat cerebral cortex
# Kv channel = test: Cerep binding; conditions: 10 μM; [125I]α−dendrotoxin; rat cerebral cortex
# SKCa channel = test: Cerep binding; conditions: 10 μM; [125I]apamin; rat cerebral cortex
# [3] = tested on: T13, Norepinephrine transporter; test: Cerep binding; set-up: species or system human; conditions: 10 μM; [3H]nisoxetine; hum. recomb. (CHO)
# T13 construct: host or cells: CHO
# male Lister Hooded rats = test: Diazepam-induced spatial learning impairment in the Morris water maze; type: in vivo, rat
# Procedure: The current study used a modified version of the standard acquisition protocol, in which pre-trained rats had to learn to locate a new platform position during six trials on the test day, as described previously. Subjects were semi-randomly divided into treatment groups based on their performance on the last training day. A computer tracking system (HVS Image Ltd, UK) was used to analyse each rat’s swim path on-line.
# Latency, pathlength and swim speed (Supplementary Fig. S2) were analysed with a one-factor ANOVA. For the probe trial, to determine whether each treatment group had learned the spatial position of the platform, within-subjects ANOVA was used to compare percent time spent in the platform quadrant with the left, right and opposite quadrants. All significant cases were followed by a post hoc Newman–Keuls test. In addition, a comparison between vehicle treated and diazepam-treated rats on the percent time spent in the platform quadrant was analysed using an unpaired t-test.
# [4] = Pharmacokinetics, single oral dosing, SAD study BP25129; type: in vivo, Human; conditions: for bioavailability / Tmax / AUC(0-t) / Cmax: human, plasma, tablet, n = 6 male; for Tmax: median, read-out: Tmax (range); for AUC(0-t) / Cmax: ± percent coefficient of variation
# Plasma protein binding = type: in vitro ADME
# From the text: Free plasma concentrations were used to estimate receptor occupancy.
# male F-344 rats = test: Social approach avoidance test
# [5] = 3 and 10 mg/kg p.o. + diazepam 6 mg/kg i.p.
structure (smiles),measurement,setting,value
Cc1onc(-c2ccc(F)cc2)c1COc1ccc(C(=O)N2CCS(=O)(=O)CC2)cn1 [basmisanil],binding,human α4β3γ2,no binding
same,binding,human α6β3γ2,no binding
same,% Inhibition,[1],-1%
same,% Inhibition,Dopamine D1,0%
same,% Inhibition,Dopamine D4.4,9%
same,% Inhibition,Purinergic P2X,-7%
same,% Inhibition,Serotonin 5-HT1A,0%
same,% Inhibition,Serotonin 5-HT6,7%
same,% Inhibition,Sigma (non-selective),58%
same,% Inhibition,Bradykinin B2,14%
same,% Inhibition,Endothelin ETB,-2%
same,% Inhibition,Galanin 1,0%
same,% Inhibition,Melanocortin MC4,9%
same,% Inhibition,Neurokinin NK1,37%
same,% Inhibition,Neurokinin NK2,7%
same,% Inhibition,[2],-3%
same,% Inhibition,Kv channel,-1%
same,% Inhibition,SKCa channel,3%
same,% Inhibition,[3],11%
same,"probe trial, percent time spent in the previous platform quadrant","male Lister Hooded rats; 10 mg/kg p.o. + diazepam 6 mg/kg i.p., 30 min before test",attenuated the diazepam-induced deficit
same,latency and pathlength across six learning trials,male Lister Hooded rats; [5],did not significantly reduce the diazepam-induced increase in latency and pathlength
same,swim speed,male Lister Hooded rats; [5],no effect on swim speed
same,bioavailability,[4]; 45 mg oral,~75%
same,Tmax,[4]; 45 mg oral,3.5 h
same,AUC(0-t),[4]; 45 mg oral,6040 ± 38.7 ng·h/mL
same,Cmax,[4]; 45 mg oral,767 ± 15.4 ng/mL
same,bioavailability,[4]; 160 mg oral,~75%
same,Tmax,[4]; 160 mg oral,4 h
same,AUC(0-t),[4]; 160 mg oral,20300 ng·h/mL
same,Cmax,[4]; 160 mg oral,1860 ± 14.3 ng/mL
same,bioavailability,[4]; 330 mg oral,~75%
same,Tmax,[4]; 330 mg oral,4 h
same,AUC(0-t),[4]; 330 mg oral,30500 ng·h/mL
same,Cmax,[4]; 330 mg oral,2120 ± 24 ng/mL
same,maximum plasma concentration,[4]; single dose 160 mg,1860 ng/mL
same,maximum plasma concentration,[4]; single dose 660 mg,3710 ng/mL
same,maximum plasma concentration,[4]; single dose 1250 mg,4890 ng/mL
same,fraction unbound,"Plasma protein binding; human, plasma, primates, including humans",0.055
same,free fraction,"Plasma protein binding; primates, including humans",5.5%
same,fraction unbound,"Plasma protein binding; rat, rats",0.14
same,time spent in the social compartment,"male F-344 rats; 3–100 mg/kg p.o., 1 h prior to testing",did not significantly reduce the time spent in the social compartment
same,anxiogenic-like effect (time in social compartment and in hidden area),male F-344 rats; up to 100 mg/kg p.o.,did not have an anxiogenic-like effect
